Experimental findings from US10640748B2, “Oligodendroglial cell culturing methods and in methods for treating neurodegenerative disorders by using thyroid hormones or analogues” (NeuOrphan Pty Ltd, priority 2014, dated 2020) are described below.

This assay deals with hESC-derived OPCs. Briefly: Stage VI terminal differentiation of hESC-derived OPCs. The class given is cell-based, human. The procedure:
Stage VI; for terminal differentiation, these cells were plated onto poly-L-ornithine (10 μg/mL, Sigma-Aldrich) and mouse laminin (10 μg/mL, Life technologies) coated plates in N2/B27 medium supplemented with T3 (50 ng/mL, Sigma-Aldrich) for 21 days to induce pre-OLs.

As for `N[C@@H](Cc1cc(I)c(Oc2ccc(O)c(I)c2)c(I)c1)C(=O)O` [T3, Triiodothyronine], the “terminal differentiation of OPCs into O4+ pre-OLs and MBP+ pre-myelinating OLs” value is on record as “promoted terminal differentiation”.
